Test system: human
Assay: Sensory evaluation of salty taste enhancing activity of capsazepine in human
Assay type: in vivo
Conditions: for strength of salty taste middle and after taste: after 2 seconds; for strength of salty taste middle and after taste / strength of salty taste initial taste: relative to control; for strength of salty taste initial taste: first 2 seconds
Description: The presence or absence of a salty taste enhancing activity in human was examined by a quantitative sensory evaluation test for capsazepine having an ENaC activation to action.
The quantitative sensory evaluation test was performed as follows. Distilled water containing sodium chloride (0.8 g/dl) was mixed with capsazepine as a sample at 0.0001 to 0.001 g/dl, and the level of a salty taste enhancing activity was measured. Distilled water containing 0.8 g/dl of sodium chloride was used as a control, and distilled water containing 0.9 g/dl or 1.0 g/dl of sodium chloride was used as a comparison target. Using a linear measurement method, a straight line showing 1.0-fold (0.8 g/dl), 1.13-fold (0.9 g/dl), 1.25-fold (1.0 g/dl) positions of sodium chloride concentration was drawn and the position showing the strength of the corresponding salty taste was put down thereon. As for the sensory evaluation, an average of the positions put down by the panelists was determined, and an increase in the level of salty taste relative to the level of salty taste in the control was indicated as a salty taste enhancing rate (fold). […] The “initial taste” means the evaluation of the strength of the salty taste for 2 seconds after placing in the mouth, and the “middle and after taste” means a combination of middle taste and after taste, which is the evaluation of the strength of the salty taste after 2 seconds from placing in the mouth.

[1] = sample 0.0001 g/dl in 0.8 g/dl sodium chloride
[2] = sample 0.0005 g/dl in 0.8 g/dl sodium chloride
[3] = sample 0.001 g/dl in 0.8 g/dl sodium chloride

With `Oc1cc2c(cc1O)CN(C(=S)NCCc1ccc(Cl)cc1)CCC2` [capsazepine] the “strength of salty taste middle and after taste” value (“strength … after taste” below) [1] was 1.05 fold, the “strength of salty taste initial taste” value [1] was 1.04 fold and the “strength … after taste” value [2] was 1.08 fold. The “strength of salty taste initial taste” value [2] was 1.11 fold, the “strength … after taste” value [3] was 1.11 fold and the “strength of salty taste initial taste” value [3] was 1.11 fold. The “salty taste enhancing activity in human” value (summary in words of Table 3) was “has a salty taste enhancing activity in human”.

Source: patent publication US20140004243A1, “SALTY TASTE ENHANCER” (AJINOMOTO CO., INC., priority 2011, published 2014)
